pKd: −log10 of the molar value.
How the values were obtained:
[1] = biological target: T1, eEF2 (eukaryotic translational elongation factor 2) (Homo sapiens, UniProt P13639); test: SPR (Biacore T200); type: binding; parameters: eEF2 protein immobilized on a CM5 chip
[2] = biological target: T1, eEF2 (eukaryotic translational elongation factor 2); test: ITC (KD […]); also SPR (KD […]), CETSA in KYSE510 and […] T cells, GTPase-Glo inhibition of purified eEF2; type: binding; parameters: eEF2-3 × Flag purified from 293 T cells

Row | Structure (SMILES) | pKd [1] | pKd [2]
1 | O=C(NCCN1CCCC1)c1cc(-c2ccc(CN3CCOCC3)cc2)nc2ccc(F)cc12 [DDD107498] | 7.27 | 
2 | CC(=O)O[C@@H]1C[C@H](O)[C@@]23CO[C@@H](O)[C@]1(C)[C@@H]2C[C@@H](O)[C@]1(C)[C@@H]3C(=O)[C@H](OC(C)=O)[C@@]2(C)[C@H](c3ccoc3)C[C@H]3O[C@]321 [TSN, Toosendanin] |  | ~7.78
